Values quoted from earlier work, collected in patent publication US20030113270A1, “Vasoactive intestinal peptides for glaucomatous retinopathy” (priority 2001, published 2003).
Where no end group is shown, it is not given here.

Test system: neuronal survival

In the case of “vasoactive intestinal polypeptide (HSDAVFTDNYTRLRKQMAVKKYLNSILN; ends and bridges not checked; UniProt P01282 125-152, looked up) [VIP, 28 amino acid neuropeptide]”, the neuroprotection (Alzheimer's disease-relevant models) is given as “provide neuroprotection”.
In the case of Stearyl-norleucine^17-VIP [SNV], the “potency in promoting neuronal survival relative to VIP” value (more potent than VIP) is given as 100 fold.
